Laboratory results from patent publication US6521605B1, “Amidophosphate derivatives” (Eli Lilly and Company, priority 1998, dated 2003).

Target: T1, human GluR4B receptor (Homo sapiens, UniProt P48058)
T1 construct: expressed in transfected cells
Assay: potentiation of agonist-induced excitability of human GluR4B receptor expressed in HEK 293 cells
Format: cell-based
Conditions: human GluR4B expressed in HEK 293 cells
Description: The ability of compounds of formula I to potentiate glutamate receptor-mediated response may be determined using fluorescent calcium indicator dyes (Molecular Probes, Eugene, Oreg., Fluo-3) and by measuring glutamate-evoked efflux of calcium into GluR4 transfected HEK293 cells, as described in more detail below.
In one test, 96 well plates containing confluent monolayers of HEK cells stably expressing human GluR4B (obtained as described in European Patent Application Publication Number EP-A1-583917) are prepared. The tissue culture medium in the wells is then discarded, and the wells are each washed once with 200 μl of buffer (glucose, 10 mM, sodium chloride, 138 mM, magnesium chloride, 1 mM, potassium chloride, 5 mM, calcium chloride, 5 mM, N-[2-hydroxyethyl]-piperazine-N-[2-ethanesulfonic acid], 10 mM, to pH 7.1 to 7.3). […]
Each test is then performed as follows. […] A second fluorescent reading is taken after 5 minutes incubation. 15 μl of 400 μM glutamate solution is then added to each well (final glutamate concentration 100 μM), and a third reading is taken. The activities of test compounds and cyclothiazide solutions are determined by subtracting the second from the third reading (fluorescence due to addition of glutamate in the presence or absence of test compound or cyclothiazide) and are expressed relative to enhance fluorescence produced by 100 μM, cyclothiazide.

T1 sequence (P48058 21-902): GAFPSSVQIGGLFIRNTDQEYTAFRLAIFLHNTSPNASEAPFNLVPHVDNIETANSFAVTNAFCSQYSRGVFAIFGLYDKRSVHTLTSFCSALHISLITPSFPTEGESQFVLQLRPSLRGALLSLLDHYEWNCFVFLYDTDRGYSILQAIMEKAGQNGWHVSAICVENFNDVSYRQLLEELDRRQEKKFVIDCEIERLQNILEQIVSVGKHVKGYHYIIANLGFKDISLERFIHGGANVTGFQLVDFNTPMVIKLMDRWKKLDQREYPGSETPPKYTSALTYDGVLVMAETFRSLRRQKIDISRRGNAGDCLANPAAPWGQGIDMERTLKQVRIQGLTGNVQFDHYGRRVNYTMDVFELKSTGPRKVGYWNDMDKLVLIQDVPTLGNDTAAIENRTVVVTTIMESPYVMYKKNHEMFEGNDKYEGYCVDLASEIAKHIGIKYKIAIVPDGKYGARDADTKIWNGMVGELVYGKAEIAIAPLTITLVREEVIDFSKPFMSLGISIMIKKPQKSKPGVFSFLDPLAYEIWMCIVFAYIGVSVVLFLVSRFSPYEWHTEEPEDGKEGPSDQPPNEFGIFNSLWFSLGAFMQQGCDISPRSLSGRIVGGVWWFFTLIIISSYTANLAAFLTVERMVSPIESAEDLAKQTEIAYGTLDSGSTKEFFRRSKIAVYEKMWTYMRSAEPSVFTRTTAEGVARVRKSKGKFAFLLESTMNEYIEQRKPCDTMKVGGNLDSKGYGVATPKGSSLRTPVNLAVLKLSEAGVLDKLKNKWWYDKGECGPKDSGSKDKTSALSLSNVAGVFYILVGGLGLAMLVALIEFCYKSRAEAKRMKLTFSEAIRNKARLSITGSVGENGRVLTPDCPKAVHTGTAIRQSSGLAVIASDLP

NS(=O)(=O)c1cc2c(cc1Cl)NC(C1CC3C=CC1C3)NS2(=O)=O (stereo not shown) [cyclothiazide]
potentiation of agonist-induced excitability of human GluR4B receptor: potentiate agonist-induced excitability
